Where two headings read alike, the source gives them in different places.
How the values were obtained:
human keratinocytes [1] = assay: Dosage of ROS (DCF fluorescence) after UV-induced oxidative stress; type: cell-based; conditions: for anti-radical protection percentage / fluorescence, directly proportional to the quantity of ROS (average value): after 5 minutes exposure to UV
Procedure: The substance to be tested was diluted in a salt solution to the final concentrations required. The dichlorofluorescein acetate (DCF) was diluted apart in a special buffer. The DCF reacts with the free radicals if present giving rise to a fluorescent derivative, and the fluorometry reading gives a quantity related to the presence of this substance in the cells analyzed. A sufficient number of cells (30,000 cells/well) is sown in the wells of a […]. After a pre-incubation period overnight with the different sample concentrations, the culture medium is sucked out of the wells and replaced with 500 μl of DCF solution. The plates are placed in a CO2 thermo regulator at 37° C. to incubate for 15 minutes. At this point the DCF solution is discarded. After a 5 minute period of exposure to UV rays, the oxidative stress is interrupted, and the fluorometry reading taken. The lamp used in the experiments reproduces the solar spectrum with a constant UVA emission field of between 315 and 400 nm. The emission of UVB is appropriately shielded to avoid direct cytotoxic damage to the cell cultures. The plate containing the cells is irradiated at room temperature with an intensity of 1.7 mW/cm^2 of UVA […].
Reading of the fluorometry is carried out at the excitation wave length of 485 nm and emission of 530 nm directly on the plates (Toxicol. Letters 1997-93: 47-54).
(§1) • Control negative (C−): cells not treated • Control positive (C+): cells exposed to UV without protective treatment • Samples: • cells exposed to UV in the presence of protective substances: • Vitamin C 0.1 mg/ml (anti-oxidant of comparison) • SOL.—Solution 20% dimethyl sulfone
The results are given in terms of fluorescence, that are directly proportional to the quantity of ROS
The anti-radical protection percentage offered by the substance is calculated using the following formula: […]

human keratinocytes [2] = type: cell-based
Procedure: A second test, through the determination of the vitality of the cells using the MTT method, enables evaluation of the total damage suffered by the cells (in the absence of and following oxidative stress) and the protective effect produced by the substance tested in different concentrations.
Before and following exposure to UV rays, an MTT test is carried out to evaluate the toxic impact on the cell energetic system (mitochondrions) compared with cells not protected from oxidative stress a cells not exposed to stress. The MTT test is simple, accurate and gives reproducible results. This method, originally developed by Mossman […], is based on a yellow substance in solution. The mitochondrial dehydrogenize of live cells is able to cut the tetrazolium ring causing the formation of insoluble purple coloured salts. The crystals can de dissolved in acidified isopropanol and the purple solution formed can be spectrophotometrically dosed. An increase/decrease in number of the live cells can be evaluated as corresponding to the increase or decrease in the optical absorption due to formazano salts, giving a quantification of the global cytotoxic event.
as §1
Cellular vitality as evaluated in the absence of oxidative stress (UV−) and after 5 minutes of exposure to […]
Absorption values (O.D) at 540 nm (in proportion to the number of cells). Evaluation of cellular vitality in the absence of oxidative stress

For CS(C)(=O)=O [MSM SOL. 20%, dimethyl sulfone], the anti-radical protection percentage (human keratinocytes [1]; 0.003 mg/ml) was 41.2%, the “fluorescence, directly proportional to the quantity of ROS (average value)” value (from here on “fluorescence, directly proportional”) (human keratinocytes [1]; 0.003 mg/ml) was 17820 and the anti-radical protection percentage (human keratinocytes [1]; 0.01 mg/ml) was 37.5%. For the same molecule, the “fluorescence, directly proportional” value (human keratinocytes [1]; 0.01 mg/ml) was 18887, the anti-radical protection percentage (human keratinocytes [1]; 0.03 mg/ml) was 34.8% and the “fluorescence, directly proportional” value (human keratinocytes [1]; 0.03 mg/ml) was 19686. For the same molecule, the anti-radical protection percentage (human keratinocytes [1]; 0.09 mg/ml) was 43.7%, the “fluorescence, directly proportional” value (human keratinocytes [1]; 0.09 mg/ml) was 17117 and the anti-radical protection percentage (human keratinocytes [1]; 0.28 mg/ml) was 38.3%. For the same molecule, the “fluorescence, directly proportional” value (human keratinocytes [1]; 0.28 mg/ml) was 18675, the anti-radical protection percentage (human keratinocytes [1]; 0.83 mg/ml) was 44.6% and the “fluorescence, directly proportional” value (human keratinocytes [1]; 0.83 mg/ml) was 16848. The anti-radical protection percentage (human keratinocytes [1]; 2.5 mg/ml) was 41.4%, the “fluorescence, directly proportional” value (human keratinocytes [1]; 2.5 mg/ml) was 17782 and the “antioxidant activity: presence of ROS in keratinocyte cultures subjected to oxidative stress” value (human keratinocytes [1]; concentration between 0.003 and 2.5 mg/ml) was “significantly reduces the presence of reactive oxygen species (ROS)”. The “cellular vitality, absorption value at 540 nm (average value)” value (from here on “cellular vitality, absorption value”) (human keratinocytes [2]; 0.003 mg/ml, after 5 minutes exposure to UV (UV+)) was 3.020 O.D, the “cellular vitality, absorption value” value (human keratinocytes [2]; 0.01 mg/ml, after 5 minutes exposure to UV (UV+)) was 2.977 O.D and the “cellular vitality, absorption value” value (human keratinocytes [2]; 0.03 mg/ml, after 5 minutes exposure to UV (UV+)) was 2.940 O.D. For the same molecule, the “cellular vitality, absorption value” value (human keratinocytes [2]; 0.09 mg/ml, after 5 minutes exposure to UV (UV+)) was 2.987 O.D, the “cellular vitality, absorption value” value (human keratinocytes [2]; 0.28 mg/ml, after 5 minutes exposure to UV (UV+)) was 2.832 O.D and the “cellular vitality, absorption value” value (human keratinocytes [2]; 0.83 mg/ml, after 5 minutes exposure to UV (UV+)) was 2.838 O.D. The “cellular vitality, absorption value” value (human keratinocytes [2]; 2.5 mg/ml, after 5 minutes exposure to UV (UV+)) was 2.777 O.D and the “cytoprotective activity: cellular vitality following exposure to UV radiation” value (human keratinocytes [2]; concentration between 0.003 and 2.5 mg/ml, versus non-treated keratinocytes) was “cellular vitality of treated Keratinocytes is greater compared with non-treated Keratinocytes”.
With O=C1O[C@H]([C@@H](O)CO)C(O)=C1O [VIT C, Vitamin C, reference compound] the “fluorescence, directly proportional” value (human keratinocytes [1]; 0.1 mg/ml) was 20837, the “cellular vitality, absorption value” value (human keratinocytes [2]; 0.1 mg/ml, after 5 minutes exposure to UV (UV+)) was 2.904 O.D and the “cellular vitality, absorption value” value (human keratinocytes [2]; human, 0.1 mg/ml) was 2.977 O.D.
